# Source: patent US9051250B2, “Polymorphs of N-malonyl-bis(N′-methyl-N′-thiobenzoylhydrazide)” (Synta Pharmaceuticals Corp., priority 2007, dated 2015)
# Where two headings read alike, the source gives them in different places.
# Legend:
# [1] = Reconstitution test in 50:50 Cremophor EL/Ethanol; assay type: physicochemical; conditions: 266 mg in 16.7 ml 50:50 Cremophor EL/Ethanol
# Procedure: As used herein, the reconstitution time is measured in 50:50 Cremophor EL/ethanol solution at ambient temperature (e.g., 18-25° C.) The reconstitution time can be measure according to the procedure described in Example 7. For example, the reconstitution time is measured by dissolving 266 mg of compound 1 in 16.7 mL of 50:50 Cremophor EL/ethanol solution with manual shaking or mechanical shaking at a speed of 232-236 rpm.
# 50:50 Cremophor EL/Ethanol was prepared and filtered through a 0.45 μm filter and used for testing. 266 mg of compound 1 was weighed into a 50 mL glass vial with a rubber stopper. 16.7 ml of filtered 50:50 Cremophor EL/Ethanol solution was taken by a syringe and needle and added into the vial. The vial was shaken either manually, or on a mechanical shaker at a speed of 232-236 rpm. The reconstitution time was determined with three vials. At different time points, vials were subject to visual observation.
# Sieve-cut test = assay type: physicochemical; conditions: 300 micron screen
# Procedure: […] 5 g to 20 g samples were used, depending on the batch size. The mass and percentage of material collected in the receiver were measured.
# [2] = Stability study (appearance, HPLC, IR) in stability chambers; assay type: physicochemical; conditions: for % compd 1 / % compd 2: HPLC
# Procedure: 100 mg±2% of compound 1 was weighed into each 20 mL scintillation vial. The vials were capped with appropriate caps and sealed with Parafilm to prevent moisture entrapment. Stability for the test compounds synthesized from different log was tested. Twelve vials for each lot were prepared and distributed into respective stability chambers to initiate their stability study according to the following protocol.
# Stability of the test compound was determined by its appearance and by analytical methods such as HPLC and IR. The IR test was performed for all time points under the two conditions listed above using material in one vial.
# Compound 1 contains trace amount of compound 2 shown below. The amounts of compound 1 and 2 present at each time point were analyzed by HPLC.
# [3] = Solubility of Form A and Form D; assay type: physicochemical; conditions: shake time 24 hour; for solubility at 24 h: organic solvent or mixture, thermodynamic from solid
# [4] = system: stage IV metastatic melanoma; conditions: in combination with taxol, relative to patients treated with paclitaxel alone; cited from earlier work
structure (smiles),measurement,setting,value
CN(NC(=O)CC(=O)NN(C)C(=S)c1ccccc1)C(=S)c1ccccc1 [compound 2],Re-constitution time (min) for specific sieve-cut,[1]; 500 micron sieve-cut,">>25, 500 micron min"
same,"% by weight that passed through a specific size screen, %",Sieve-cut test,Does not pass
"CN(NC(=O)CC(=O)NN(C)C(=S)c1ccccc1)C(=S)c1ccccc1 [Lot #2, N-malonyl-bis(N′-methyl-N′-thiobenzoylhydrazide)]",Appearance,"[2]; 25° C./60% RH, 0 months",Pale-yellow
same,FT-IR,"[2]; 25° C./60% RH, 0 months",Form D
same,Appearance,"[2]; 25° C./60% RH, 1 month",Pale-yellow
same,FT-IR,"[2]; 25° C./60% RH, 1 month",Form D
same,Appearance,"[2]; 25° C./60% RH, 3 months",Pale-yellow
same,FT-IR,"[2]; 25° C./60% RH, 3 months",Form D
same,Appearance,"[2]; 25° C./60% RH, 6 months",Pale-yellow
same,FT-IR,"[2]; 25° C./60% RH, 6 months",Form D
same,Appearance,"[2]; 25° C./60% RH, 9 months",Pale-yellow
same,FT-IR,"[2]; 25° C./60% RH, 9 months",Form D
same,Appearance,"[2]; 25° C./60% RH, 12 months",Pale-yellow
same,FT-IR,"[2]; 25° C./60% RH, 12 months",Form D
same,Appearance,"[2]; 40° C./75% RH, 0 months",Pale-
same,FT-IR,"[2]; 40° C./75% RH, 0 months",Form D
same,Appearance,"[2]; 40° C./75% RH, 0.5 months",Pale-yellow
same,FT-IR,"[2]; 40° C./75% RH, 0.5 months",Form D
same,Appearance,"[2]; 40° C./75% RH, 1 month",Pale-
same,FT-IR,"[2]; 40° C./75% RH, 1 month",Form D
same,Appearance,"[2]; 40° C./75% RH, 3 months",Pale-yellow
same,FT-IR,"[2]; 40° C./75% RH, 3 months",Form D
same,Appearance,"[2]; 40° C./75% RH, 6 months",Pale-
same,FT-IR,"[2]; 40° C./75% RH, 6 months",Form D
same,% compd 1,"[2]; 25° C./60% RH, 0 months",99.7%
same,% compd 2,"[2]; 25° C./60% RH, 0 months",0.15%
same,% compd 1,"[2]; 25° C./60% RH, 1 month",98.6%
same,% compd 2,"[2]; 25° C./60% RH, 1 month",0.14%
same,% compd 1,"[2]; 25° C./60% RH, 3 months",100.2%
same,% compd 2,"[2]; 25° C./60% RH, 3 months",0.15%
same,% compd 1,"[2]; 25° C./60% RH, 6 months",99.6%
same,% compd 2,"[2]; 25° C./60% RH, 6 months",0.13%
same,% compd 1,"[2]; 25° C./60% RH, 9 months",98.9%
same,% compd 2,"[2]; 25° C./60% RH, 9 months",0.13%
same,% compd 1,"[2]; 25° C./60% RH, 12 months",99.7%
same,% compd 2,"[2]; 25° C./60% RH, 12 months",0.13%
same,% compd 1,"[2]; 40° C./75% RH, 0 months",99.7%
same,% compd 2,"[2]; 40° C./75% RH, 0 months",0.15%
same,% compd 1,"[2]; 40° C./75% RH, 0.5 months",99.6%
same,% compd 2,"[2]; 40° C./75% RH, 0.5 months",0.14%
same,% compd 1,"[2]; 40° C./75% RH, 1 month",100.3%
same,% compd 2,"[2]; 40° C./75% RH, 1 month",0.16%
same,% compd 1,"[2]; 40° C./75% RH, 3 months",100.2%
same,% compd 2,"[2]; 40° C./75% RH, 3 months",0.19%
same,% compd 1,"[2]; 40° C./75% RH, 6 months",101.7%
same,% compd 2,"[2]; 40° C./75% RH, 6 months",0.18%
"CN(NC(=O)CC(=O)NN(C)C(=S)c1ccccc1)C(=S)c1ccccc1 [Crystal Habit 2, N-malonyl-bis(N′-methyl-N′-thiobenzoylhydrazide)]",Re-constitution time (min) for specific sieve-cut,[1]; 150 micron sieve-cut,less than or equal to 15 min
"CN(NC(=O)CC(=O)NN(C)C(=S)c1ccccc1)C(=S)c1ccccc1 [Form D, N-malonyl-bis(N′-methyl-N′-thiobenzoylhydrazide)]","Solubility in 50:50 Cre/EtOH, Vial1","[3]; 50:50 Cremophor/EtOH, Vial1",42.69 mg/mL
same,"Solubility in 50:50 Cre/EtOH, Vial2","[3]; 50:50 Cremophor/EtOH, Vial2",42.74 mg/mL
same,"Solubility in 50:50 Cre/EtOH, Average","[3]; 50:50 Cremophor/EtOH, average of two vials",42.7 mg/mL
same,"Solubility in EtOAc, Vial1","[3]; EtOAc, Vial1",7.41 mg/mL
same,"Solubility in EtOAc, Vial2","[3]; EtOAc, Vial2",7.50 mg/mL
same,"Solubility in EtOAc, Average","[3]; EtOAc, average of two vials",7.5 mg/mL
same,"Solubility in EtOH, Vial1","[3]; EtOH, Vial1",9.76 mg/mL
same,"Solubility in EtOH, Vial2","[3]; EtOH, Vial2",9.75 mg/mL
same,"Solubility in EtOH, Average","[3]; EtOH, average of two vials",9.8 mg/mL
"CN(NC(=O)CC(=O)NN(C)C(=S)c1ccccc1)C(=S)c1ccccc1 [compound 1, N-malonyl-bis(N′-methyl-N′-thiobenzoylhydrazide)]",Re-constitution time (min) for specific sieve-cut,[1]; 500 micron sieve-cut,">>25, 500 micron min"
same,"% by weight that passed through a specific size screen, %",Sieve-cut test,Does not pass
same,time to progression,[4],increase the time to progression
"CN(NC(=O)CC(=O)NN(C)C(=S)c1ccccc1)C(=S)c1ccccc1 [Form A, N-malonyl-bis(N′-methyl-N′-thiobenzoylhydrazide)]",solubility at 24 h,"[3]; 50:50 Cremophor/ethanol, 50:50 Cremophor/EtOH, Vial1, read-out: Solubility in 50:50 Cre/EtOH, Vial1",24.4 mg/mL
same,solubility at 24 h,"[3]; 50:50 Cremophor/ethanol, 50:50 Cremophor/EtOH, Vial2, read-out: Solubility in 50:50 Cre/EtOH, Vial2",24.3 mg/mL
same,solubility at 24 h,"[3]; 50:50 Cremophor/ethanol, 50:50 Cremophor/EtOH, average of two vials, read-out: Solubility in 50:50 Cre/EtOH, Average",24.3 mg/mL
same,solubility at 24 h,"[3]; ethanol, EtOH, Vial1, read-out: Solubility in EtOH, Vial1",6.28 mg/mL
same,solubility at 24 h,"[3]; ethanol, EtOH, Vial2, read-out: Solubility in EtOH, Vial2",6.45 mg/mL
same,solubility at 24 h,"[3]; ethanol, EtOH, average of two vials, read-out: Solubility in EtOH, Average",6.4 mg/mL
same,solubility at 24 h,"[3]; ethyl acetate, EtOAc, Vial1, read-out: Solubility in EtOAc, Vial1",4.69 mg/mL
same,solubility at 24 h,"[3]; ethyl acetate, EtOAc, Vial2, read-out: Solubility in EtOAc, Vial2",4.69 mg/mL
same,solubility at 24 h,"[3]; ethyl acetate, EtOAc, average of two vials, read-out: Solubility in EtOAc, Average",4.7 mg/mL
"CN(NC(=O)CC(=O)NN(C)C(=S)c1ccccc1)C(=S)c1ccccc1 [Crystal Habit 1, N-malonyl-bis(N′-methyl-N′-thiobenzoylhydrazide)]",Re-constitution time (min) for specific sieve-cut,[1]; 500 micron sieve-cut,greater than 25 min
"CN(NC(=O)CC(=O)NN(C)C(=S)c1ccccc1)C(=S)c1ccccc1 [Lot #1, N-malonyl-bis(N′-methyl-N′-thiobenzoylhydrazide)]",Appearance,"[2]; 25° C./60% RH, 0 months",Pale-yellow
same,FT-IR,"[2]; 25° C./60% RH, 0 months",Form D
same,Appearance,"[2]; 25° C./60% RH, 1 month",Pale-yellow
same,FT-IR,"[2]; 25° C./60% RH, 1 month",Form D
same,Appearance,"[2]; 25° C./60% RH, 3 months",Pale-yellow
same,FT-IR,"[2]; 25° C./60% RH, 3 months",Form D
same,Appearance,"[2]; 25° C./60% RH, 6 months",Pale yellow
same,FT-IR,"[2]; 25° C./60% RH, 6 months",Form D
same,Appearance,"[2]; 25° C./60% RH, 9 months",Pale yellow
same,FT-IR,"[2]; 25° C./60% RH, 9 months",Form D
same,Appearance,"[2]; 25° C./60% RH, 12 months",Pale yellow
same,FT-IR,"[2]; 25° C./60% RH, 12 months",Form D
same,Appearance,"[2]; 40° C./75% RH, 0 months",Pale-
same,FT-IR,"[2]; 40° C./75% RH, 0 months",Form D
same,Appearance,"[2]; 40° C./75% RH, 0.5 months",Pale-yellow
same,FT-IR,"[2]; 40° C./75% RH, 0.5 months",Form D
same,Appearance,"[2]; 40° C./75% RH, 1 month",Pale-
same,FT-IR,"[2]; 40° C./75% RH, 1 month",Form D
same,Appearance,"[2]; 40° C./75% RH, 3 months",Pale-yellow
same,FT-IR,"[2]; 40° C./75% RH, 3 months",Form D
same,Appearance,"[2]; 40° C./75% RH, 6 months",Pale-
same,FT-IR,"[2]; 40° C./75% RH, 6 months",Form D
same,% compd 1,"[2]; 25° C./60% RH, 0 months",99.0%
same,% compd 2,"[2]; 25° C./60% RH, 0 months",1.30%
same,% compd 1,"[2]; 25° C./60% RH, 1 month",98.8%
same,% compd 2,"[2]; 25° C./60% RH, 1 month",1.28%
same,% compd 1,"[2]; 25° C./60% RH, 3 months",99.0%
same,% compd 2,"[2]; 25° C./60% RH, 3 months",1.31%
same,% compd 1,"[2]; 25° C./60% RH, 6 months",99.0%
same,% compd 2,"[2]; 25° C./60% RH, 6 months",1.28%
same,% compd 1,"[2]; 25° C./60% RH, 9 months",97.5%
same,% compd 2,"[2]; 25° C./60% RH, 9 months",1.38%
same,% compd 1,"[2]; 25° C./60% RH, 12 months",98.0%
same,% compd 2,"[2]; 25° C./60% RH, 12 months",1.33%
same,% compd 1,"[2]; 40° C./75% RH, 0 months",99.0%
same,% compd 2,"[2]; 40° C./75% RH, 0 months",1.30%
same,% compd 1,"[2]; 40° C./75% RH, 0.5 months",99.7%
same,% compd 2,"[2]; 40° C./75% RH, 0.5 months",1.28%
same,% compd 1,"[2]; 40° C./75% RH, 1 month",95.8%
same,% compd 2,"[2]; 40° C./75% RH, 1 month",1.28%
same,% compd 1,"[2]; 40° C./75% RH, 3 months",98.9%
same,% compd 2,"[2]; 40° C./75% RH, 3 months",1.33%
same,% compd 1,"[2]; 40° C./75% RH, 6 months",98.4%
same,% compd 2,"[2]; 40° C./75% RH, 6 months",1.31%
